What was measured:
[1] = tested on: isolated guinea pig lung strip; experiment: Bronchodilating effect on isolated guinea pig lung strip pre-contracted by histamine; type: cell-based
Procedure: Test method: Guinea pigs (Dunlin-Hartley, ca. 400 g) were used. After anesthesia, the chest was opened and sections of lung tissue about 3 mm in width, were dissected quickly from a lower lobe with the longitudinal axis of the strip cut parallel to the bronchus. The strips were further divided into two thin strips with approximate dimension of 20×3×3 mm. With threads attached to each end, strips were mounted in organ baths containing aerated Krebs solution at 37° C. A load of between 0.5-1.0 g force was applied by gentle stretching, and the tissue was allowed to equilibrate for 60 min with the solution changed at 20 min intervals. The lung strips were pre-contracted by 10^−5 M histamine, then an equal volume of solution containing R-bambuterol or racemic bambuterol was added cumulatively into the organ bath. The contractions of the lung strips were measured isometrically with force-displacement transducers and recorded.
Based on the pharmacokinetic studies of racemic bambuterol hydrochloride, about 50% of absorbed bambuterol is hydrolyzed to terbutaline, the active-parent form, in plasma. There is little cholinesterase in the lung strip preparation, so neither the test compound nor racemic bambuterol has significant effects. In order to test the compound of invention in vitro on isolated guinea-pig lung tissue, R-bambuterol and racemic bambuterol were administrated orally to guinea pigs at a dose of 8 mg/kg. Four hours later, blood was collected from the animals, and the serum containing the active parent form of the test compounds were prepared. The concentration of the active parent form, i.e. terbutaline, in serum measured using BPLC, was 64-70 ng/ml in the animal treated with R-bambuterol and 62-69 ng/ml in the animal treated with racemic bambuterol. The serum containing the active form of test compound was then added into the organ in a certain volume, so that the final concentration of the active forms of test compounds was 0.25 ng/ml in the organ bath. Concentration-response relationships were obtained using a cumulative dose schedule by adding the same volume of the serum into the organ bath. The test using the serum containing the active form of racemic bambuterol was done in parallel with the test compound in the same manner as described above.

[2] = tested on: β-2 receptor; conditions: Hartley and Middlemis 1971; cited from earlier work

Compound	Percent of Relaxation ([1]; 0.25 ng/ml active form in organ bath, 10^−5 M histamine pre-contraction) [%]	Percent of Relaxation ([1]; 0.50 ng/ml active form) [%]	Percent of Relaxation ([1]; 0.75 ng/ml active form) [%]	Percent of Relaxation ([1]; 1.00 ng/ml active form) [%]	Percent of Relaxation ([1]; 1.25 ng/ml active form) [%]	Potency as β-2 receptor agonist relative to the S-enantiomer [2]
CC(C)(C)NC[C@H](O)c1cc(O)cc(O)c1 [Active form of R-bambuterol, R-terbutaline]	12.4 ± 1.3	19.5 ± 2.2	43.7 ± 1.8	60.1 ± 5.7	75.6 ± 8.4	–
CC(C)(C)NC[C@H](O)c1ccc(O)c(CO)c1 [R-enantiomer of albuterol, albuterol]	–	–	–	–	–	approximately 80 times
